These results are taken from patent US8334236B2, “Ring-fused 2-pyridone derivatives and herbicides” (Kumiai Chemical Industry Co., Ltd., priority 2009, dated 2012).

Assay type in all cases: in vivo
Common to all, as to parameters: scale not given here

In experiment [1] the test system is Echinochloa oryzicola Vasing. The experiment in a line: Test Example 1: herbicidal effects in paddy field soil treatment. The conditions noted are these: 1000 g active ingredient per hectare, 21st day after treatment. The protocol: (§1) 100-cm^2 plastic pots were filled with paddy field soil. After puddling and leveling, seeds of Echinochloa oryzicola Vasing, Monochoria vaginalis (Burm. f.) Presl var. plantaginea (Roxb.) Solms-Laub., and Scirpus juncoides Roxb. var. ohwianus. T. Koyama were sowed in the pots, and the soil was waterlogged to a water depth of 3 cm. On the next day, a wettable powder formulation prepared according to Formulation Example 1 was diluted with water, and the dilution was added dropwise onto the water surface. The amount of application was an amount equivalent to 1000 g of the active ingredient per hectare. Thereafter, the plants were grown in a greenhouse, and on the 21st day after the treatment, the herbicidal effects were investigated according to the criteria described in Table 71.
(§2) In addition, comparative compound A, comparative compound B, comparative compound C, and comparative compound D in the tables represent Compound Nos. 70, 34, 32, and 31, respectively, as described in EP-283261. The structural formulas of these compounds are presented below.

In experiment [2] the test system is Monochoria vaginalis (Burm. f.) Presl var. plantaginea (Roxb.) Solms-Laub. Described as above. The conditions noted are these: 1000 g active ingredient per hectare, 21st day after treatment. The protocol: as §1, §2
The subject of experiment [3] is Scirpus juncoides Roxb. var. ohwianus. T. Koyama. The experiment is described as above. The note with it: 1000 g active ingredient per hectare, 21st day after treatment. The protocol:
as §1, §2

The test system of experiment [4] is Abutilon theophrasti medicus. Nature of the experiment: Test Example 2: herbicidal effects in farmland soil treatment. The note with it: 1000 g active ingredient per hectare, 21st day after treatment. The protocol: (§3) 80-cm^2 plastic pots were filled with farmland soil. Seeds of Abutilon theophrasti medicus and Amaranthus retroflexus were sowed in the pots, and soil was covered. A wettable powder formulation prepared according to Formulation Example 1 was diluted with water, and the dilution was uniformly sprayed on the soil surface with a small sprayer, in an amount equivalent to 1000 liters per hectare, such that 1000 g of the active ingredient was applied per hectare. Thereafter, the plants were grown in a greenhouse, and on the 21st day after the treatment, the herbicidal effects were investigated according to the criteria described in Table 71 shown above.

Experiment [5] deals with Amaranthus retroflexus. The experiment is described as above. The note with it: 1000 g active ingredient per hectare, 21st day after treatment. The protocol:
as §3

Experiment [6] has as its system Abutilon theophrasti medicus. The experiment in a line: Test Example 3: herbicidal effects in farmland foliar treatment. The conditions noted are these: 1000 g active ingredient per hectare, 14th day after treatment. The protocol:
(§4) 80-cm^2 plastic pots were filled with farmland soil. Seeds of Echinochloa crus-galli (L.) P. Beauv. var. crus-galli, Abutilon theophrasti medicus, and Amaranthus retroflexus were sowed in the pots, and the plants were grown for two weeks in a greenhouse. A wettable powder formulation prepared according to Formulation Example 1 was diluted with water, and the dilution was applied by foliar treatment by spraying with a small sprayer over the whole plant from the upper part, in an amount equivalent to 1000 liters per hectare, such that 1000 g of the active ingredient was applied per hectare. Thereafter, the plants were grown in a greenhouse, and on the 14th day after the treatment, the herbicidal effects were investigated according to the criteria described in Table 71 shown above.

Experiment [7] relates to Amaranthus retroflexus. The experiment is described as above. The note with it: 1000 g active ingredient per hectare, 14th day after treatment. The protocol:
as §4

The test system of experiment [8] is Echinochloa crus-galli (L.) P. Beauv. var. crus-galli. The experiment is described as above. The conditions noted are these: 1000 g active ingredient per hectare, 14th day after treatment. The protocol:
as §4

For the next experiment, the system named is Echinochloa crus-galli. Nature of the experiment: Test Example 2: herbicidal effects in farmland soil treatment. The note with it: 1000 g active ingredient per hectare, 21st day after treatment.
The test system of experiment [9] is Setaria viridis. The experiment is described as above. The note with it: 1000 g active ingredient per hectare, 21st day after treatment.
Experiment [10] has as its system Setaria viridis. The experiment in a line: Test Example 3: herbicidal effects in farmland foliar treatment. The conditions noted are these: 1000 g active ingredient per hectare, 14th day after treatment.

For the compound `CCCn1c(=O)c(C(=O)C2=C(O)CCCC2=O)cc2cccnc21` [II-4], the “Herbicidal effect index, Echinochloa oryzicola” value in experiment [1] worked out at 5. Besides, the “Herbicidal effect index, Monochoria vaginalis” value in [2] is listed as 5. For the same compound, the “Herbicidal effect index, Scirpus juncoides” value in experiment [3] is reported as 5. In addition, the “Herbicidal effect index, Abutilon thophrasti” value in [4] came to 5. The “Herbicidal effect index, Amaranthus retroflexus” value in the experiment on Amaranthus retroflexus [5] and in the experiment with Amaranthus retroflexus [7] was 5 throughout. Further, the “Herbicidal effect index, Abutilon theoprasti” value in experiment [6] is 5. The “Herbicidal effect index, Echinochloa crus-galli” value (in experiment [8]; with Echinochloa crus-galli) was 5 each time. Also, the “Herbicidal effect index, Setaria viridis” value in the experiment on Setaria viridis [9] and with Setaria viridis [10] was 4 in each case.
In the case of `CCOCCn1c(=O)c(C(=O)C2=C(O)CCCC2=O)cc2cccnc21` [II-15], the “Herbicidal effect index, Echinochloa oryzicola” value in [1] worked out at 5. The “Herbicidal effect index, Monochoria vaginalis” value in [2] worked out at 5. Further, the “Herbicidal effect index, Scirpus juncoides” value in experiment [3] was 5. Further, the “Herbicidal effect index, Abutilon thophrasti” value in experiment [4] is recorded as 5. For the same compound, the “Herbicidal effect index, Amaranthus retroflexus” value with Amaranthus retroflexus [5] and in the experiment on Amaranthus retroflexus [7] was 5 each time. For the same compound, the “Herbicidal effect index, Abutilon theoprasti” value in [6] is given as 5. In addition, the “Herbicidal effect index, Echinochloa crus-galli” value (in experiment [8]; in the experiment with Echinochloa crus-galli) was 5 each time. Also, the “Herbicidal effect index, Setaria viridis” value in the experiment on Setaria viridis [9] and with Setaria viridis [10] was 5 throughout.
Regarding `O=C1CCCC(O)=C1C(=O)c1cc2cccnc2n(-c2cccc(F)c2)c1=O` [II-43], the “Herbicidal effect index, Echinochloa oryzicola” value in experiment [1] is recorded as 5. In addition, the “Herbicidal effect index, Monochoria vaginalis” value in experiment [2] is recorded as 5. Further, in [3], the “Herbicidal effect index, Scirpus juncoides” value is listed as 5. Besides, the “Herbicidal effect index, Abutilon thophrasti” value in experiment [4] was determined as 5. Besides, the “Herbicidal effect index, Amaranthus retroflexus” value in the experiment with Amaranthus retroflexus [5] and with Amaranthus retroflexus [7] was 5 throughout. In experiment [6], the “Herbicidal effect index, Abutilon theoprasti” value stood at 5. Besides, the “Herbicidal effect index, Echinochloa crus-galli” value (in experiment [8]; in the experiment with Echinochloa crus-galli) was 5 each time. Moreover, the “Herbicidal effect index, Setaria viridis” value in the experiment with Setaria viridis [9] and in the experiment on Setaria viridis [10] was 5 in each case.
Consider `Cc1ccccc1-n1c(=O)c(C(=O)C2=C(O)CCCC2=O)cc2cccnc21` [II-48], for which, in experiment [1], the “Herbicidal effect index, Echinochloa oryzicola” value is listed as 5. The “Herbicidal effect index, Monochoria vaginalis” value in experiment [2] is listed as 5. Also, the “Herbicidal effect index, Scirpus juncoides” value in [3] stood at 5. Further, in experiment [4], the “Herbicidal effect index, Abutilon thophrasti” value was 4. Further, the “Herbicidal effect index, Amaranthus retroflexus” value in the experiment with Amaranthus retroflexus [5] and with Amaranthus retroflexus [7] was 5 each time. Besides, the “Herbicidal effect index, Abutilon theoprasti” value in experiment [6] is 5. In addition, the “Herbicidal effect index, Echinochloa crus-galli” value (in experiment [8]; in the experiment with Echinochloa crus-galli) was 5 each time. For the same compound, the “Herbicidal effect index, Setaria viridis” value in the experiment on Setaria viridis [9] and with Setaria viridis [10] was 5 in each case.
For the compound `O=C1CCCC(O)=C1C(=O)c1cc2cccnc2n(-c2cccc(C(F)(F)F)c2)c1=O` [II-52], the “Herbicidal effect index, Echinochloa oryzicola” value in experiment [1] amounted to 5. The “Herbicidal effect index, Monochoria vaginalis” value in experiment [2] amounted to 5. The “Herbicidal effect index, Scirpus juncoides” value in experiment [3] stood at 5. In addition, the “Herbicidal effect index, Abutilon thophrasti” value in experiment [4] amounted to 5. In addition, the “Herbicidal effect index, Amaranthus retroflexus” value in the experiment on Amaranthus retroflexus [5] and in the experiment with Amaranthus retroflexus [7] was 5 in each case. In addition, the “Herbicidal effect index, Abutilon theoprasti” value in [6] is given as 5. Also, the “Herbicidal effect index, Echinochloa crus-galli” value (in experiment [8]; in the experiment on Echinochloa crus-galli) was 5 in each case. In addition, the “Herbicidal effect index, Setaria viridis” value in the experiment with Setaria viridis [9] and in the experiment on Setaria viridis [10] was 5 each time.
With `COc1ccccc1-n1c(=O)c(C(=O)C2=C(O)CCCC2=O)cc2cccnc21` [II-54], the “Herbicidal effect index, Echinochloa oryzicola” value in [1] is 5. For the same compound, the “Herbicidal effect index, Monochoria vaginalis” value in experiment [2] worked out at 5. Besides, in experiment [3], the “Herbicidal effect index, Scirpus juncoides” value is on record as 5. Further, in experiment [4], the “Herbicidal effect index, Abutilon thophrasti” value is recorded as 5. The “Herbicidal effect index, Amaranthus retroflexus” value with Amaranthus retroflexus [5] and in the experiment with Amaranthus retroflexus [7] was 5 in each case. Besides, in [6], the “Herbicidal effect index, Abutilon theoprasti” value came out at 5. The “Herbicidal effect index, Echinochloa crus-galli” value (in [8]; with Echinochloa crus-galli) was 5 throughout. Moreover, the “Herbicidal effect index, Setaria viridis” value with Setaria viridis [9] and in the experiment on Setaria viridis [10] was 5 in each case.
Take `COc1cccc(-n2c(=O)c(C(=O)C3=C(O)CCCC3=O)cc3cccnc32)c1` [II-55]: in [1], the “Herbicidal effect index, Echinochloa oryzicola” value is recorded as 5. In addition, the “Herbicidal effect index, Monochoria vaginalis” value in experiment [2] is on record as 5. Further, the “Herbicidal effect index, Scirpus juncoides” value in experiment [3] worked out at 5. In addition, the “Herbicidal effect index, Abutilon thophrasti” value in experiment [4] is 5. Further, the “Herbicidal effect index, Amaranthus retroflexus” value in the experiment with Amaranthus retroflexus [5] and in the experiment with Amaranthus retroflexus [7] was 5 in each case. In addition, the “Herbicidal effect index, Abutilon theoprasti” value in [6] came out at 5. Further, the “Herbicidal effect index, Echinochloa crus-galli” value (in [8]; with Echinochloa crus-galli) was 5 throughout. Moreover, the “Herbicidal effect index, Setaria viridis” value in the experiment on Setaria viridis [9] and in the experiment with Setaria viridis [10] was 5 throughout.
For `COc1ccc(-n2c(=O)c(C(=O)C3=C(O)CCCC3=O)cc3cccnc32)cc1` [II-56], the “Herbicidal effect index, Echinochloa oryzicola” value in [1] is 5. The “Herbicidal effect index, Monochoria vaginalis” value in experiment [2] is 5. Besides, the “Herbicidal effect index, Scirpus juncoides” value in experiment [3] is on record as 5. Moreover, in experiment [4], the “Herbicidal effect index, Abutilon thophrasti” value is on record as 5. Further, the “Herbicidal effect index, Amaranthus retroflexus” value in the experiment with Amaranthus retroflexus [5] and with Amaranthus retroflexus [7] was 5 in each case. The “Herbicidal effect index, Abutilon theoprasti” value in experiment [6] is listed as 5. Besides, the “Herbicidal effect index, Echinochloa crus-galli” value (in experiment [8]; in the experiment with Echinochloa crus-galli) was 5 each time. Also, the “Herbicidal effect index, Setaria viridis” value with Setaria viridis [9] and in the experiment with Setaria viridis [10] was 5 throughout.
On to `Cc1ccc(C)c(-n2c(=O)c(C(=O)C3=C(O)CCCC3=O)cc3cccnc32)c1` [II-58], for which the “Herbicidal effect index, Echinochloa oryzicola” value in experiment [1] was 5. In addition, the “Herbicidal effect index, Monochoria vaginalis” value in experiment [2] is on record as 5. Further, the “Herbicidal effect index, Scirpus juncoides” value in experiment [3] came out at 5. Also, in experiment [4], the “Herbicidal effect index, Abutilon thophrasti” value came to 5. In addition, the “Herbicidal effect index, Amaranthus retroflexus” value in the experiment with Amaranthus retroflexus [5] and in the experiment on Amaranthus retroflexus [7] was 5 throughout. Moreover, the “Herbicidal effect index, Abutilon theoprasti” value in [6] is on record as 5. In addition, the “Herbicidal effect index, Echinochloa crus-galli” value (in [8]; in the experiment with Echinochloa crus-galli) was 5 in each case. Besides, the “Herbicidal effect index, Setaria viridis” value in the experiment with Setaria viridis [9] and with Setaria viridis [10] was 5 throughout.
As to `Cc1ccc2cc(C(=O)C3=C(O)CCCC3=O)c(=O)n(-c3ccccc3)c2n1` [II-123], the “Herbicidal effect index, Echinochloa oryzicola” value in [1] is on record as 5. Also, the “Herbicidal effect index, Monochoria vaginalis” value in experiment [2] came out at 5. The “Herbicidal effect index, Scirpus juncoides” value in experiment [3] is recorded as 5. Besides, in [4], the “Herbicidal effect index, Abutilon thophrasti” value is reported as 5. Further, the “Herbicidal effect index, Amaranthus retroflexus” value with Amaranthus retroflexus [5] and in the experiment on Amaranthus retroflexus [7] was 5 throughout. Besides, in [6], the “Herbicidal effect index, Abutilon theoprasti” value was determined as 5. Besides, the “Herbicidal effect index, Echinochloa crus-galli” value (in [8]; with Echinochloa crus-galli) was 5 each time. The “Herbicidal effect index, Setaria viridis” value in the experiment on Setaria viridis [9] and in the experiment with Setaria viridis [10] was 5 each time.
For `CC(C)c1ccc2cc(C(=O)C3=C(O)CCCC3=O)c(=O)n(-c3ccccc3)c2n1` [II-128], the “Herbicidal effect index, Echinochloa oryzicola” value in [1] is given as 5. Further, the “Herbicidal effect index, Monochoria vaginalis” value in [2] worked out at 5. Also, the “Herbicidal effect index, Scirpus juncoides” value in [3] is listed as 5. Further, in [4], the “Herbicidal effect index, Abutilon thophrasti” value came out at 4. In addition, the “Herbicidal effect index, Amaranthus retroflexus” value with Amaranthus retroflexus [5] and in the experiment with Amaranthus retroflexus [7] was 5 each time. Also, the “Herbicidal effect index, Abutilon theoprasti” value in [6] was 5. The “Herbicidal effect index, Echinochloa crus-galli” value (in experiment [8]; with Echinochloa crus-galli) was 5 throughout. The “Herbicidal effect index, Setaria viridis” value in the experiment with Setaria viridis [9] and in the experiment on Setaria viridis [10] was 5 in each case.
